Source: patent US8288549B2, “Glycine B antagonist” (Merz Pharma GmbH & Co. KGaA, priority 2008, dated 2012)

Assays:
[1] = molecular target: T1, glycine binding pocket of the NMDA receptor (Rattus norvegicus, UniProt P35439); assay: [3H]-MDL-105,519 displacement studies on rat cortical membranes; conditions: displacement of 2 nM [3H]-MDL-105,519, rat cortical membranes, 4° C., 1 h; read-out: NMDA-MDL 105519-r-CTX - IC50
T1 construct: The cortex is dissected out and processed as described by Parsons, et al; from tissue; host or cells: rat cerebral cortex membranes (male Sprague-Dawley)
Method: [^3]MDL-105,519 Displacement Studies
For the evaluation of the binding affinity of the test compounds on the glycine binding pocket of the NMDA receptor, [^3H]-MDL-105,519 (GE Healthcare, Freiburg, Germany) displacement studies are performed using a 96-well plate robotic platform. MDL-105,519 (Baron et al., J Pharmacol Exp Ther 1996, 279(1), 62-68; Baron et al., European Journal of Pharmacology, 1997, 323(2-3), 181-192; Hoffner & Wanner, Neuroscience Letters, 1997, 226(2), 79-82) is a selective, high affinity antagonist at the NMDA receptor glycine site.
Tissue preparation is performed according to Foster & Wong (Br J Pharmacol, 1987, 91, 403-409) with some modifications. Anaesthetised male Sprague-Dawley rats (200-250 g, Janvier, Le Genest-Isle, France) are decapitated and their brains removed rapidly. The cortex is dissected out and processed as described by Parsons, et al. (J Pharmacol Exp Ther, 1997, 283(3), 1264-1275). For isolation of the cell membranes, the cortices are homogenized in 20 volumes of ice-cold 0.32 M sucrose (Sigma-Aldrich, Taufkirchen, Germany) using a glass-Teflon homogenizer. The homogenate is centrifuged at 1000×g for 10 minutes, the pellet is discarded and the supernatant centrifuged at 20,000×g for 20 minutes. The resulting pellet is re-suspended in 20 volumes of distilled water and centrifuged for 20 minutes at 8000×g. The supernatant and the buffy coat are then centrifuged three times (48,000×g for 20 minutes) in the presence of 50 mM Tris-HCl, pH 8.0 (assay buffer). All centrifugation steps are carried out at 4° C. After resuspension in 5 volumes of 50 mM Tris-HCl, pH 7.5, the membrane suspension is frozen rapidly at −80° C. On the day of assay, the membranes are thawed and washed four times by resuspension in 50 mM Tris-HCl, pH 7.5, and centrifugation at 48,000×g for 20 minutes. The final pellet is suspended in assay buffer. The amount of protein in the final membrane preparation is determined according to the method of Lowry, et al. (J. Biological Chemistry, 1951, 193, 256-275) with some modifications (Hartree, Analytical Biochemistry, 1972, 48, 422-427). The final protein concentration used for our studies is 400 μg/ml.
A robotic system designed for binding assays (Tecan Deutschland GmbH, Crailsheim, Germany) is loaded with the membrane solution, solutions for bound control (buffer/DMSO 20%), unlabeled glycine (1 mM) for evaluation of non-specific binding, all compounds to be tested (at 20-fold concentrations), radioligand and respective 96-well plates.
Before performing displacement studies, saturation experiments are performed to determine the equilibrium dissociation constant (Kd) of [^3H]-MDL-105,519, which is a parameter for the affinity of the radioligand to the binding site. The protein/receptor concentration is held constant whereas the amount of specific bound radioligand is determined using increasing concentrations of ligand.
On the basis of the saturation experiments, a final [^3H]-MDL-105,519 concentration of 2 nM is selected. Firstly, the assay plates are loaded with membrane solution and are shaken at 4° C. The mother plates are then prepared by pipetting the compounds (n=4) into assay buffer/20% DMSO to obtain the desired final concentrations. After transferring radioligand into the assay plates, the compounds are added (including the bound and the non-specific binding control). The final DMSO concentration is 1%. The assay plates are incubated and shaken at 4° C. for 1 h, before the mixture is exhausted as rapidly as possible via a vacuum manifold using the Multiscreen HTS glass fibre (type B) filter plates (Millipore, Schwalbach, Germany) under a constant vacuum of 450 mbar. The membranes are washed four times with cold assay buffer (100 μL). […]

[2] = molecular target: T2, NMDA receptor glycine B site (Rattus norvegicus, UniProt P35439); assay: Whole cell patch-clamp recordings in cultured rat hippocampal neurons (NMDA/D-Serine evoked currents); type: cell-based; conditions: NMDA (200 μM) and D-Serine (1 μM), holding potential −70 mV, read-out: NMDA-PC-r-HIC-NAM - IC50
T2 construct: Hippocampi are then isolated from the brains of at least 8 embryos after decapitation; endogenous in cells; host or cells: primary cultured hippocampal neurons from E20 Sprague-Dawley rat embryos, 11-15 DIV
Method: Antagonistic potencies of the test compounds are functionally evaluated using electrophysiological whole cell patch-clamp recordings and/or fluorometric intracellular Ca^2+-imaging (FLIPR) screens.
Cell preparation is performed as described by Parsons, et al. (Neuropharmacology, 1998, 37(6), 719-727). The female Sprague-Dawley rat is anaesthetised by placing in a saturated CO2-euthanasia chamber under further quiet CO2-influx. Under these conditions the rat loses consciousness after a few seconds and is then sacrificed by cervical dislocation. After opening the abdominal cavity, embryos (E20) are removed and stored in ice cold Ca^2+- and Mg^2+-free Hank's Buffered Salt Solution (pH 7.3), containing 4 g/l glucose (HBSS-CMF). Hippocampi are then isolated from the brains of at least 8 embryos after decapitation, transferred into ice cold HBSS-CMF and washed 3 to 4 times.
Hippocampi are pre-incubated for 8 min with a 0.66% trypsin (Sigma-Aldrich) and 0.1% (20 U/ml) DNAase solution (Sigma-Aldrich) in Ca^2+-free Phosphate Buffered Saline (PBS-CF) and washed 3 times with HBSS-CMF. Cells are then mechanically dissociated by trituration in a PBS-CF solution containing 0.05% (10 U/ml) DNAase and 0.3% of the trypsin inhibitor ovomucoid (all from Sigma-Aldrich). The cells are then centrifuged at 180×g for 10 minutes, and the cell pellet re-suspended in basal Minimum essential medium (MEM, Invitrogen, Karlsruhe, Germany), again carefully triturated to ensure maximal dissociation and finally plated in the flexiPERM inserts (Thermo Fisher Scientific, Langenselbold, Germany) at a density of 15×10^3 cells/cm^2 (0.5 ml/insert) onto poly-DL-ornithine (Sigma) and mouse laminin (Invitrogen) pre-coated plastic petri dishes. After 1 hour the cells become attached to the bottom of the dish and the inserts may be removed. The cells are then nourished with 2 ml MEM supplemented with 5% foetal calf serum (FCS) and 5% horse serum and incubated at 37° C. with 95% air and 5% CO2 at 95% humidity. After 4 days in vitro (DIV) further glial mitosis is inhibited by adding 10 μl of AraC (5 μM endconcentration). The medium is completely exchanged after an additional 2 DIV and again, but only partly (50%), after 8 DIV. The cells are used for electrophysiological recordings after 11-15 DIV.
Cells are visualised using an inverted microscope and selected for patching based upon their position and morphology. Voltage clamp recordings are made in the whole cell configuration of the patch clamp technique at a holding potential of −70 mV with the aid of an EPC-10 amplifier in combination with pipette manipulator. Patch clamp pipettes are pulled from borosilicate glass using a horizontal puller (P-97 Puller, Sutter Instruments, USA) and, when filled with intracellular solution, have resistances of 1-4 MΩ.
Solutions are delivered via a home-made gravity driven very fast perfusion system (<10 ms) including valves to switch flow on and off in combination with a stepper motor-driven double-barreled theta glass application pipette in order to expose cells to either agonist-free or agonist-containing solutions in presence or absence of antagonist.
The intracellular solution used consists of: 120 mM CsCl, 10 mM EGTA, 1 mM MgCl2, 200 μM CaCl2, 10 mM glucose and 22 mM tetraethyl ammonium chloride (TEA-CL). The corresponding extracellular bath solution contains: 140 mM NaCl, 3 mM KCl, 10 mM glucose, 10 mM HEPES, 1.5 mM CaCl2 and 4.5 mM sucrose (all from Sigma-Aldrich) pH 7.3, and is supplemented with 0.3 μM tetrodotoxin (TTX, Tocris, Bristol, U.K.) to block voltage-activated sodium channels and 0.25 μM bicuculline (Sigma-Aldrich) to block GABAA receptors. […]

| SMILES | IC50 [1] [nM] | melting point | IC50 [2] [nM] |
| --- | --- | --- | --- |
| O=C(O)c1cc2cc(Cl)ccc2nc1N[C@@H](Cc1ccc(Oc2nc3ccc(Cl)cc3cc2C(=O)O)cc1)C(=O)O [Example 8, 2-{(S)-1-Carboxy-2-[4-(3-carboxy-6-chloroquinolin-2-yloxy)-phenyl]-ethylamino}-6-chloro-quinoline-3-carboxylic acid] | 450 | – | – |
| O=C(O)c1cc2cc(Cl)ccc2nc1N[C@@H](Cc1ccc(OCc2ccccc2)cc1)C(=O)O [Example 22, 2-[(S)-2-(4-Benzyloxy-phenyl)-1-carboxy-ethylamino]-6-chloro-quinoline-3-carboxylic acid] | 2700 | – | – |
| CC(c1ccccc1)C(Nc1nc2ccc(Cl)cc2cc1C(=O)O)C(=O)O (stereo not drawn) [Example 31, erythro-2-(1-Carboxy-2-phenyl-propylamino)-6-chloro-quinoline-3-carboxylic acid] | 3370 | – | – |
| O=C(O)c1cc2cc(Cl)c(Cl)cc2nc1N[C@@H](Cc1ccccc1)C(=O)O [Example 32, 2-((S)-1-Carboxy-2-phenyl-ethylamino)-6,7-dichloro-quinoline-3-carboxylic acid] | 5800 | – | – |
| O=C(O)c1cc2cc(Cl)ccc2nc1N[C@@H](CC1CCCCC1)C(=O)O [Example 35, 2-((S)-1-Carboxy-2-cyclohexyl-ethylamino)-6-chloro-quinoline-3-carboxylic acid] | 3300 | – | – |
| N.N.O=C(O)c1cc2cc(Cl)ccc2nc1NC(Cc1ccccc1F)C(=O)O (stereo not shown) [Example 40, 2-[1-Carboxy-2-(2-fluoro-phenyl)-ethylamino]-6-chloro-quinoline-3-carboxylic acid ammonium salt] | – | 144 to 148 °C (dec.) | 754 |
| O=C(O)c1cc2cc(Br)ccc2nc1N[C@H](Cc1ccccc1)C(=O)O [Example 47, 6-Bromo-2-((R)-1-carboxy-2-phenyl-ethylamino)-quinoline-3-carboxylic acid] | – | 140 to 141 °C | 468 |
| Nc1cc(C[C@H](Nc2nc3ccc(Cl)cc3cc2C(=O)O)C(=O)O)ccc1Oc1nc2ccc(Cl)cc2cc1C(=O)O [Example 48, 2-{(S)-2-[3-Amino-4-(3-carboxy-6-chloro-quinolin-2-yloxy)-phenyl]-1-carboxy-ethylamino}-6-chloro-quinoline-3-carboxylic acid] | – | > 250 °C | 680 |
| O=C(O)c1cc2cc(Cl)ccc2nc1Nc1ccc(CC(Nc2nc3ccc(Cl)cc3cc2C(=O)O)C(=O)O)cc1 (stereo not shown) [Example 59, 2-{1-Carboxy-2-[4-(3-carboxy-6-chloro-quinolin-2-ylamino)-phenyl]-ethylamino}-6-chloro-quinoline-3-carboxylic acid] | – | > 250 °C (dec.) | 640 |
| O=C(O)c1cc2cc(Cl)ccc2nc1NC(C(=O)O)C(C(=O)O)c1ccccc1 (stereo not shown) [Example 79, 2-(3-Carboxy-6-chloro-quinolin-2-ylamino)-3-phenyl-succinic acid] | – | 165 to 170 °C (dec.) | 250 |
| O=C(O)c1cc2cc(Cl)ccc2nc1N[C@@H](Cc1ccc(Oc2ccc(Br)cn2)cc1)C(=O)O [Example 101, 2-{(S)-2-[4-(5-Bromo-pyridin-2-yloxy)-phenyl]-1-carboxy-ethylamino}-6-chloro-quinoline-3-carboxylic acid] | – | 145 to 150 °C | 420 |
| O=C(O)c1cc2cc(Cl)ccc2nc1N[C@@H](Cc1ccc(Oc2ccc(I)cn2)cc1)C(=O)O [Example 131, 2-{1-Carboxy-2-[4-(5-iodo-pyridin-2-yloxy)-phenyl]-ethylamino}-6-chloro-quinoline-3-carboxylic acid] | – | – | 170 |
| O=C(O)c1cc2cc(Cl)ccc2nc1N[C@@H](Cc1ccc(Oc2ccnc3cc(Cl)ccc23)cc1)C(=O)O [Example 142, 2-{(S)-1-Carboxy-2-[4-(7-chloro-quinolin-4-yloxy)-phenyl]-ethylamino}-6-chloro-quinoline-3-carboxylic acid] | 1440 | – | – |
| O=C(O)c1cc2cc(Cl)ccc2nc1N[C@@H](Cc1ccc(Oc2ccncc2Br)cc1)C(=O)O [Example 144, 2-{(S)-2-[4-(3-Bromo-pyridin-4-yloxy)-phenyl]-1-carboxy-ethylamino}-6-chloro-quinoline-3-carboxylic acid] | 840 | – | – |
| O=C(O)c1cc2cc(Cl)ccc2nc1N[C@@H](Cc1ccc(Oc2ccc3cc(Br)cnc3n2)cc1)C(=O)O [Example 147, 2-{(S)-2-[4-(6-Bromo-[1,8]naphthyridin-2-yloxy)-phenyl]-1-carboxy-ethylamino}-6-chloro-quinoline-3-carboxylic acid] | 290 | – | – |
| O=C(O)c1cc2cc(Cl)ccc2nc1NC(Cc1ccccn1)C(=O)O (stereo not shown) [Example 149, 2-(1-Carboxy-2-pyridin-2-yl-ethylamino)-6-chloro-quinoline-3-carboxylic acid] | – | – | 170 |
